The source of these data is patent publication US7632666B2 (priority 2005, dated 2009).

The target in assay [1] is haloalkane dehalogenase DhlA (Xanthobacter autotrophicus, UniProt P22643). Type of assay: biochemical, Xanthobacter autotrophicus GJ10.
For assay [2], the system named is haloalkane dehalogenase DbeA. It is filed as biochemical, Bradyrhizobium elkanii. As to conditions: pH 8.2.
For assay [3], the target named is haloalkane dehalogenase LinB (Sphingobium indicum, UniProt D4Z2G1). It is filed as biochemical, Sphingomonas paucimobilis UT26.
For assay [4], the target named is haloalkane dehalogenase DbjA (Bradyrhizobium diazoefficiens, UniProt P59337). It is filed as biochemical, Bradyrhizobium japonicum USDA110.
The target of assay [5] is haloalkane dehalogenase DhaA (Rhodococcus rhodochrous, UniProt P0A3G2). Type of assay: biochemical, Rhodococcus rhodochrous NCIMB 13064.
Assay [6] deals with haloalkane dehalogenases DmbA, DmbB, DmbC, DhlA, DhaA, DrbA, LinB, DhmA, DbjA and DbeA. It is filed as biochemical.
Assay [7] has as its target haloalkane dehalogenase DhmA (Mycobacterium avium, UniProt Q93K00). Type of assay: biochemical. As to conditions: pH 8.2.
The target of assay [8] is haloalkane dehalogenase DmbB (Mycobacterium bovis, UniProt P64302). It is filed as biochemical. The following applies: pH 8.2.
Assay [9] deals with haloalkane dehalogenase DrbA. It is filed as biochemical, Rhodopirellula baltica. As to conditions: pH 8.2.
The target of assay [10] is haloalkane dehalogenase DmbC (Mycobacterium bovis, UniProt P64304). It is filed as biochemical. The following applies: pH 8.2.
Assay [11] addresses modified protein MUT01 with haloalkane dehalogenase activity (Rhodococcus rhodochrous, UniProt P0A3G2, A172V/C176G/F144A/G171R/INS140[…]/K175G/P142A/V245A/W141H). It is filed as biochemical. The following applies: pH 8.2.
Assay [12] has as its target haloalkane dehalogenase LinB L177T (Sphingobium indicum, UniProt D4Z2G1, L177T). Type of assay: biochemical.
Assay [13] concerns the target haloalkane dehalogenase LinB L177A (Sphingobium indicum, UniProt D4Z2G1, L177A). Type of assay: biochemical.
Assay [14] has as its target haloalkane dehalogenase LinB L177V (Sphingobium indicum, UniProt D4Z2G1, L177V). It is filed as biochemical.
Assay [15] has as its target haloalkane dehalogenase LinB L177F (Sphingobium indicum, UniProt D4Z2G1, L177F). It is filed as biochemical.
The target in assay [16] is haloalkane dehalogenase LinB L177S (Sphingobium indicum, UniProt D4Z2G1, L177S). It is filed as biochemical.
For assay [17], the target named is haloalkane dehalogenase LinB L177R (Sphingobium indicum, UniProt D4Z2G1, L177R). It is filed as biochemical.
Assay [18] addresses haloalkane dehalogenase LinB L177Q (Sphingobium indicum, UniProt D4Z2G1, L177Q). It is filed as biochemical.
Assay [19] has as its target haloalkane dehalogenase LinB L177K (Sphingobium indicum, UniProt D4Z2G1, L177K). It is filed as biochemical.
The target of assay [20] is haloalkane dehalogenase LinB L177G (Sphingobium indicum, UniProt D4Z2G1, L177G). It is filed as biochemical.
The target in assay [21] is haloalkane dehalogenase LinB L177D (Sphingobium indicum, UniProt D4Z2G1, L177D). It is filed as biochemical.
Assay [22] has as its target haloalkane dehalogenase LinB L177H (Sphingobium indicum, UniProt D4Z2G1, L177H). Type of assay: biochemical.
The target of assay [23] is haloalkane dehalogenase LinB L177W (Sphingobium indicum, UniProt D4Z2G1, L177W). It is filed as biochemical.
Assay [24] concerns the target haloalkane dehalogenase LinB L177C (Sphingobium indicum, UniProt D4Z2G1, L177C). Type of assay: biochemical.
Assay [25] has as its target haloalkane dehalogenase LinB wild type (Sphingobium indicum, UniProt D4Z2G1). Type of assay: biochemical, Sphingomonas paucimobilis UT26.
Assay [26] has as its target haloalkane dehalogenase LinB L177M (Sphingobium indicum, UniProt D4Z2G1, L177M). Type of assay: biochemical.
Assay [27] has as its target haloalkane dehalogenase LinB L177Y (Sphingobium indicum, UniProt D4Z2G1, L177Y). It is filed as biochemical.

The structures appear in SMILES notation. Like-named read-outs stand apart in the source and are kept apart here.

Consider `CCCC(C)Br` (racemic) [2-bromopentane], for which the “E-values DhlA” value in assay [1] came out at 5.5. Moreover, the “E-value, chiral recognition by DbeA” value in assay [2] came out at 98. For the same molecule, the “E-values LinB” value in assay [3] was 16. The “E-values DbjA” value in assay [4] was 145. Moreover, the “E-value, chiral recognition by DbjA” value in [4] (pH 8.2) was greater than 145. Also, in [5], the “E-values DhaA” value is listed as 7.

As for `CC(Br)C(=O)c1ccccc1` (racemic) [2-bromopropiophenone], in assay [6], the enantioselectivity result is reported as “excellent enantioselectivity”. In [3], the “E-values LinB” value was determined as 13. Further, in assay [4], the “E-values DbjA” value is reported as greater than 200. Moreover, the “E-value, chiral recognition by DbjA” value in [4] (pH 8.2) is greater than 200. Further, the “E-values DhaA” value in assay [5] is greater than 200.

Turning to `CCOC(=O)C(Br)CC` (racemic) [ethyl 2-bromobutyrate], the “E-values DhmA” value in [7] is recorded as greater than 200. Also, the “E-values DbeA” value in assay [2] is greater than 200. In assay [8], the “E-values DmbB” value is given as greater than 200. In assay [9], the “E-values DrbA” value is greater than 200. Further, the “E-values LinB” value in assay [3] and in assay [3] (pH 8.2) was greater than 200 each time. Also, the “E-values DmbC” value in assay [10] is recorded as greater than 200. Also, the “E-values DbjA” value in assay [4] and in [4] (pH 8.2) was greater than 200 each time. The “E-values DhaA” value in assay [5] and in [5] (pH 8.2) was greater than 200 each time.

Take `CCOC(=O)C(C)Br` (racemic) [ethyl 2-bromopropionate]: in assay [11], the “E-value, chiral recognition by protein MUT01” value is recorded as greater than 200. The enantioselectivity result in assay [6] is reported as “excellent enantioselectivity”. For the same molecule, in assay [3], the “E-values LinB” value came to 97. For the same molecule, the “E-values DbjA” value in assay [4] amounted to 194. Moreover, the “E-values DhaA” value in assay [5] was 59.

For `COC(=O)C(C)Br` (racemic) [methyl 2-bromopropionate], the enantioselectivity result in assay [6] is on record as “excellent enantioselectivity”. In addition, the “E-values LinB” value in assay [3] is 52. The “E-values DbjA” value in assay [4] is greater than 200. The “E-values DhaA” value in [5] amounted to 68. Further, the “E-value, chiral recognition by DhaA” value in assay [5] (pH 8.2) was greater than 200.

As for `CCCCI` [1-iodobutane], the “Relative activities (% of wt) L177T” value in [12] is listed as 424 % of wt. Further, the “Relative activities (% of wt) L177A” value in assay [13] is recorded as 133 % of wt. The “Relative activities (% of wt) L177V” value in [14] is on record as 101 % of wt. For the same molecule, in assay [15], the “Relative activities (% of wt) L177F” value is recorded as 126 % of wt. Besides, the “Relative activities (% of wt) L177S” value in assay [16] is 363 % of wt. In addition, the “Relative activities (% of wt) L177R” value in assay [17] is listed as 161 % of wt. Also, the “Relative activities (% of wt) L177Q” value in assay [18] is given as 373 % of wt. Also, the “Relative activities (% of wt) L177K” value in assay [19] is 131 % of wt. Also, the “Relative activities (% of wt) L177G” value in [20] is listed as 344 % of wt. The “Relative activities (% of wt) L177D” value in assay [21] is 259 % of wt. Moreover, in assay [22], the “Relative activities (% of wt) L177H” value is recorded as 208 % of wt. Moreover, the “Relative activities (% of wt) L177W” value in assay [23] is 58 % of wt. Besides, the “Relative activities (% of wt) L177C” value in assay [24] was 210 % of wt. In assay [25], the “Relative activities (% of wt) wt1” value is recorded as 100 % of wt and the “Relative activities (% of wt) wt2” value is reported as 100 % of wt. In assay [26], the “Relative activities (% of wt) L177M” value is on record as 187 % of wt. The “Relative activities (% of wt) L177Y” value in assay [27] is 97 % of wt.

For `C=C(C)CCl` [3-chloro-2-methylpropene], the “Relative activities (% of wt) L177T” value in assay [12] is listed as 96 % of wt. Also, the “Relative activities (% of wt) L177A” value in [13] is 199 % of wt. Moreover, the “Relative activities (% of wt) L177V” value in assay [14] is 79 % of wt. For the same molecule, in assay [15], the “Relative activities (% of wt) L177F” value is 98 % of wt. In addition, in [16], the “Relative activities (% of wt) L177S” value is 65 % of wt. In addition, the “Relative activities (% of wt) L177R” value in [17] was 83 % of wt. In assay [18], the “Relative activities (% of wt) L177Q” value was 138 % of wt. Moreover, in assay [19], the “Relative activities (% of wt) L177K” value is listed as 110 % of wt. For the same molecule, the “Relative activities (% of wt) L177G” value in assay [20] is given as 200 % of wt. The “Relative activities (% of wt) L177D” value in assay [21] is reported as 25 % of wt. Besides, in assay [22], the “Relative activities (% of wt) L177H” value is 82 % of wt. In addition, the “Relative activities (% of wt) L177W” value in assay [23] is given as 91 % of wt. The “Relative activities (% of wt) L177C” value in assay [24] is given as 157 % of wt. Besides, in [25], the “Relative activities (% of wt) wt1” value is recorded as 100 % of wt and the “Relative activities (% of wt) wt2” value is listed as 100 % of wt. Besides, the “Relative activities (% of wt) L177M” value in assay [26] is 100 % of wt. Also, in assay [27], the “Relative activities (% of wt) L177Y” value is given as 78 % of wt.
